# Reference: patent US12697343B2, “Intravenous istaroxime for the treatment of acute heart failure” (Seismic Pharmaceuticals Operations LLC, priority 2021, dated 2026)
# Structures can show the parent of a compound that is named as a salt.
# Tested on: patients hospitalized for acute heart failure (AHF)
# Assay: Diuresis over 24 h during and after study drug infusion
# Format: in vivo, human
# From the text: This study was a phase II, multicenter, randomized, double-blind, placebo-controlled, parallel group investigation, conducted at two sites in Italy and eight sites in China. All patients provided written informed consent. The study was approved by country regulatory authorities and by local institutional review boards. The trial is registered in the European Clinical Trials Database (EudraCT 2013-000540-26) and ClinicalTrials.gov (NCT02617446).
# Patients were randomized 2:1 to istaroxime or placebo 24 h infusion and were enrolled in two sequential cohorts, the first with an istaroxime dose of 0.5 μg/kg/min and the second with an istaroxime dose of 1.0 μg/kg/min. At the end of cohort 1 enrollment, an independent Data Safety and Monitoring Board conducted an interim safety analysis of unblinded data before proceeding to cohort 2 enrollment. Inclusion criteria were: age ≥18 years, an ongoing hospitalization for AHF with dyspnoea at rest or minimal exertion and need for intravenous diuretic therapy (40 mg intravenous furosemide), SBP between 90 and 125 mmHg without signs or symptoms of peripheral hypoperfusion: LVEF ≤40%: intermediate to high E/e′ ratio by tissue Doppler echocardiography (10); brain natriuretic peptide (BNP) or N-terminal pro BNP (NT-proBNP) plasma levels ≥350 pg/mL or ≥1400 pg/mL, respectively, and presence of adequate echocardiographic windows. The main exclusion criteria were: concomitant or planned treatment with intravenous vasodilators, inotropes or vasopressors: treatment with oral digoxin (patients treated with digoxin within the last week could be randomized if the plasma concentration at screening was 0.5 ng/mL); acute coronary syndrome or stroke within the past 3 months: coronary artery bypass graft or percutaneous coronary intervention within the past month or planned in the next month: resting HR >120 bpm or <50 bpm: life-threatening ventricular arrhythmia or implantable cardioverter-defibrillator shock within the past month: fever 38° C.; serum creatinine 3.0 mg/dL or estimated glomerular filtration rate (eGFR) 30 mL/min/m2; serum potassium 5.3 mmol/L or 3.8 mmol/L; severe hepatic dysfunction.
# The study design included a 24 h screening period, a 24 h study drug infusion phase (day 1), a post-treatment phase (days 2-4), and a follow-up visit at day 30 (FIG. 5). Patients could be enrolled at any time after admission. The use of oral medications was permitted during the study with the exception of digoxin. Intravenous diuretics were permitted during the treatment period at stable doses, unless changes were required due to clinically relevant variations of the patient's condition. If treatment with an inotrope was clinically necessary during the infusion period, the investigational product was discontinued. Echocardiography was performed according to international standards at screening, baseline (just before starting study drug infusion), 6, 24 h (just before infusion end), and 48 h after infusion start. Echocardiographic measurements at baseline, 6, 24, and 48 h were evaluated in a blinded fashion by a CoreLab located at the University and Civil Hospital of Brescia, Italy. E/e′ ratio was calculated as the ratio between the peak early diastolic mitral flow velocity (E wave) and the mean of the annular lateral (e′ lateral) and septal (e′ septal) velocities, according to standard guidelines.^20 Intraobserver and interobserver variability in E/e′ measurement was tested on the 15% of the recordings and is shown in FIG. 6. Self-reported dyspnoea was assessed using a 100 mm VAS, with zero representing the worst level of dyspnoea and 10 the best breathing condition. Twenty-four hour ECG monitoring was performed using a three-lead device (Mortara industries, Milwaukee, WI, USA) during the day of screening, the infusion period, and the day after (the latter was optional). Analysis was conducted by a blinded CoreLab (ICS Maugeri, Italy). […]
smiles,measurement,setting,value
"C[C@]12CCC(=NOCCN)C[C@@H]1C(=O)C[C@@H]1[C@@H]2CC[C@]2(C)C(=O)CC[C@@H]12 [Istaroxime, (E,Z)-3-((2-aminoethoxy)imino)androstane-6,17-dione hydrochloride]","Diuresis, median","0.5 μg/kg/min, 0-24 h",2700 mL
same,"Diuresis, median","0.5 μg/kg/min, 24-48 h",1800 mL
same,"Diuresis, median","0.5 μg/kg/min, 48-72 h",1650 mL
same,"Diuresis, median","1.0 μg/kg/min, 0-24 h",1975 mL
same,"Diuresis, median","1.0 μg/kg/min, 24-48 h",1260 mL
same,"Diuresis, median","1.0 μg/kg/min, 48-72 h",1350 mL
same,Overall diuresis during the 24 h infusion,compared to placebo,numerically higher
